According to ChEMBL document CHEMBL1136696, “Azalide 3,6-ketals: antibacterial activity and structure-activity relationships of aryl and hetero aryl substituted analogues” (Bioorg Med Chem Lett, 2003):
≈ marks a conversion by molar mass, not a printed value.

Experiments:
Format in all cases: functional
Pasteurella multocida = assay: In vitro antibacterial activity against Pasteurella multocida 59A0067
Escherichia coli = assay: In vitro antibacterial activity against Escherichia coli 51A0150
Staphylococcus aureus = assay: In vitro antibacterial activity against Staphylococcus aureus 01A0758

SMILES | MIC (Pasteurella multocida) | MIC (Escherichia coli) | MIC (Staphylococcus aureus)
CC[C@H]1OC(=O)[C@H](C)[C@H]2OC3(CCN(c4ncccc4[N+](=O)[O-])CC3)O[C@](C)(C[C@@H](C)CN[C@H](C)[C@@H](O)[C@]1(C)O)[C@H](O[C@@H]1O[C@H](C)CC(N(C)C)[C@H]1O)[C@H]2C (stereo partly drawn) | 0.2 µg/mL (≈ 0.256 µM) | 6.25 µg/mL (≈ 8.01 µM) | 0.78 µg/mL (≈ 1 µM)
CC[C@H]1OC(=O)[C@H](C)[C@H]2OC3(CCN(c4nc(C)ccc4C#N)CC3)O[C@](C)(C[C@@H](C)CN[C@H](C)[C@@H](O)[C@]1(C)O)[C@H](O[C@@H]1O[C@H](C)CC(N(C)C)[C@H]1O)[C@H]2C (stereo partly drawn) | 0.78 µg/mL (≈ 1.01 µM) | 6.25 µg/mL (≈ 8.07 µM) | 0.78 µg/mL (≈ 1.01 µM)
CC[C@H]1OC(=O)[C@H](C)[C@H]2OC3(CCN(c4ccc(C(F)(F)F)cn4)CC3)O[C@](C)(C[C@@H](C)CN[C@H](C)[C@@H](O)[C@]1(C)O)[C@H](O[C@@H]1O[C@H](C)CC(N(C)C)[C@H]1O)[C@H]2C (stereo partly drawn) | 0.78 µg/mL (≈ 0.971 µM) | 12.5 µg/mL (≈ 15.6 µM) | 1.56 µg/mL (≈ 1.94 µM)

Further lines, results first:

MIC (Pasteurella multocida) | MIC (Escherichia coli) | MIC (Staphylococcus aureus) | SMILES
6.25 µg/mL (≈ 6.68 µM) | > 50 µg/mL | 0.78 µg/mL (≈ 0.833 µM) | CC[C@H]1OC(=O)[C@H](C)[C@H]2OC3(CCN(c4ccc(C(=O)OCc5ccccc5)c(C(F)(F)F)c4)CC3)O[C@](C)(C[C@@H](C)CN[C@H](C)[C@@H](O)[C@]1(C)O)[C@H](O[C@@H]1O[C@H](C)CC(N(C)C)[C@H]1O)[C@H]2C (stereo partly drawn)
0.78 µg/mL (≈ 0.989 µM) | 6.25 µg/mL (≈ 7.92 µM) | 3.13 µg/mL (≈ 3.97 µM) | CC[C@H]1OC(=O)[C@H](C)[C@H]2OC3(CCN(c4nc5ccccc5o4)CC3)O[C@](C)(C[C@@H](C)CN(C)[C@H](C)[C@@H](O)[C@]1(C)O)[C@H](O[C@@H]1O[C@H](C)CC(N(C)C)[C@H]1O)[C@H]2C (stereo partly drawn)
0.1 µg/mL (≈ 0.126 µM) | 3.13 µg/mL (≈ 3.94 µM) | 1.56 µg/mL (≈ 1.96 µM) | CC[C@H]1OC(=O)[C@H](C)[C@H]2OC3(CCN(c4ccc([N+](=O)[O-])c(N)n4)CC3)O[C@](C)(C[C@@H](C)CN[C@H](C)[C@@H](O)[C@]1(C)O)[C@H](O[C@@H]1O[C@H](C)CC(N(C)C)[C@H]1O)[C@H]2C (stereo partly drawn)
